# Results from patent US20260124213A1, “STAPHYLOCOCCUS AUREUS PBP4 INHIBITORS AND METHOD OF USE” (UNIVERSITY OF ROCHESTER, priority 2022, published 2026).
# Several values for one entry are separate records, joined by “and”; a condition that tells them apart may be missing. Identical values can stand only once.
# How the values were obtained:
# Assay type in all cases: cell-based, Staphylococcus aureus
# MRSA strain BAA-1770 = test: Broth microdilution antibiotic potentiation; details: Ex. 3 compound at 60 μM
# Protocol: Broth Microdilution Method for Antibiotic Potentiation with MRSA Strains. Bacteria were cultured for 6 hours in CAMHB and sub-cultured to 5×10^5 CFU/mL in CAMHB. Subcultures were aliquoted (4 mL) into culture tubes and then inoculated with compound from 10 mM or 100 mM stock in DMSO to the desired concentration. […] Bacteria treated with antibiotic alone served as the control. Samples from the secondary culture tubes were then aliquoted (200 μL) into the first row of wells of a 96-well microtiter plate. Rows 2-11 were filled (100 μL) with the remaining 4 mL of bacterial subculture containing the adjuvant. Row 12 was filled (100 μL) with uninoculated media. From row 1, 100 μL was transferred to row two and mixed 5-8 times before being transferred to row 3. This procedure was used to serial dilute the rest of the rows through 10. The microtiter plate was then covered in Press 'n Seal and incubated at 37° C.
# strain CRBΔpbp4 = test: microbe, parasite or virus in culture; details: CRBΔpbp4
# [1] = test system: MRSA strain ATCC BAA-1556; test: Broth microdilution antibiotic potentiation; details: ATCC BAA-1556
# Outline: (§1)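 MRSA grown 6 h in CAMHB, subcultured to 5×10^5 CFU/mL, then adjuvant compound added from DMSO stock. Antibiotic serially 2-fold diluted across plate in adjuvant-containing culture, antibiotic-alone as control; plates incubated at 37° C.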
# MRSA strain AH-2204 = test: Broth microdilution antibiotic potentiation; details: AH-2204
# Outline: as §1
# MRSA strain AH-1263 = test: Broth microdilution antibiotic potentiation; details: AH-1263
# Outline: as §1
# [2] = Ex. 3 compound at 60 μM (18 and 19 at 30 μM)
smiles,measurement,setting,value
O=C(Nc1ccc2[nH]c(-c3cccs3)nc2c1)c1ccco1 [Compound 1 (7729837)],Oxacillin MIC fold reduction,MRSA strain BAA-1770,32
same,"Cmpd (putative PBP4 inhibitor) MIC, Alone",strain CRBΔpbp4,400 µM
same,Fold-decrease in ceftobiprole resistance in combination,strain CRBΔpbp4,0
same,"Cmpd concentration, Combination",strain CRBΔpbp4; with ceftobiprole,50 µM
same,"BPR (ceftobiprole) MIC, Combination",strain CRBΔpbp4; with putative PBP4 inhibitor,0.25 µg/mL
same,Ampicillin MIC,[1]; [2],8 µg/mL
same,Ampicillin MIC fold reduction,[1]; [2],(2)
same,Cefotaxime MIC,[1]; [2],16 µg/mL
same,Cefotaxime MIC fold reduction,[1]; [2],(2)
same,Oxacillin MIC,[1]; [2],2 µg/mL
same,Amoxicillin MIC,[1]; with Ex. 3 compound,8 µg/mL
same,Cephalothin MIC,[1]; with Ex. 3 compound,1 µg/mL
same,Cephalothin MIC fold reduction,[1]; with Ex. 3 compound,16
same,Penicillin G MIC,[1]; with Ex. 3 compound,2 µg/mL
same,Piperacillin MIC,[1]; with Ex. 3 compound,8 µg/mL
same,Piperacillin MIC fold reduction,[1]; with Ex. 3 compound,2
same,Ampicillin MIC,MRSA strain AH-2204; [2],2 µg/mL
same,Cefotaxime MIC,MRSA strain AH-2204; [2],8 µg/mL
same,Cefotaxime MIC fold reduction,MRSA strain AH-2204; [2],(2)
same,Oxacillin MIC,MRSA strain AH-2204; [2],0.5 µg/mL and 0.6 µg/mL
same,Amoxicillin MIC,MRSA strain AH-2204; with Ex. 3 compound,2 µg/mL
same,Cephalothin MIC,MRSA strain AH-2204; with Ex. 3 compound,0.125 µg/mL
same,Cephalothin MIC fold reduction,MRSA strain AH-2204; with Ex. 3 compound,32
same,Penicillin G MIC,MRSA strain AH-2204; with Ex. 3 compound,1 µg/mL
same,Piperacillin MIC,MRSA strain AH-2204; with Ex. 3 compound,4 µg/mL
same,Ampicillin MIC,MRSA strain AH-1263; [2],8 µg/mL
same,Ampicillin MIC fold reduction,MRSA strain AH-1263; [2],(2)
same,Cefotaxime MIC,MRSA strain AH-1263; [2],8 µg/mL
same,Cefotaxime MIC fold reduction,MRSA strain AH-1263; [2],(4)
same,Oxacillin MIC,MRSA strain AH-1263; [2],1 µg/mL
same,Amoxicillin MIC,MRSA strain AH-1263; with Ex. 3 compound,8 µg/mL
same,Cephalothin MIC,MRSA strain AH-1263; with Ex. 3 compound,1 µg/mL
same,Cephalothin MIC fold reduction,MRSA strain AH-1263; with Ex. 3 compound,32
same,Penicillin G MIC,MRSA strain AH-1263; with Ex. 3 compound,4 µg/mL
same,Penicillin G MIC fold reduction,MRSA strain AH-1263; with Ex. 3 compound,2
same,Piperacillin MIC,MRSA strain AH-1263; with Ex. 3 compound,8 µg/mL
same,Piperacillin MIC fold reduction,MRSA strain AH-1263; with Ex. 3 compound,2
